Results published in PubChem BioAssay AID1033 (Sanford-Burnham Center for Chemical Genomics, 2008).
The source made the active and inactive calls. How the calls were made is not given here.

Each compound was assayed against Chaperone protein DnaK (Escherichia coli (strain K12)) (UniProt P0A6Y8) (assay: binders of DnaK substrate-binding domain, biophysical, NMR, chaperone (AID 1033)). Conditions: Purified DnaK SBD, NMR ligand binding.
Chaperone protein DnaK (Escherichia coli (strain K12)), sequence (P0A6Y8 whole entry, looked up, the tested form may be a part): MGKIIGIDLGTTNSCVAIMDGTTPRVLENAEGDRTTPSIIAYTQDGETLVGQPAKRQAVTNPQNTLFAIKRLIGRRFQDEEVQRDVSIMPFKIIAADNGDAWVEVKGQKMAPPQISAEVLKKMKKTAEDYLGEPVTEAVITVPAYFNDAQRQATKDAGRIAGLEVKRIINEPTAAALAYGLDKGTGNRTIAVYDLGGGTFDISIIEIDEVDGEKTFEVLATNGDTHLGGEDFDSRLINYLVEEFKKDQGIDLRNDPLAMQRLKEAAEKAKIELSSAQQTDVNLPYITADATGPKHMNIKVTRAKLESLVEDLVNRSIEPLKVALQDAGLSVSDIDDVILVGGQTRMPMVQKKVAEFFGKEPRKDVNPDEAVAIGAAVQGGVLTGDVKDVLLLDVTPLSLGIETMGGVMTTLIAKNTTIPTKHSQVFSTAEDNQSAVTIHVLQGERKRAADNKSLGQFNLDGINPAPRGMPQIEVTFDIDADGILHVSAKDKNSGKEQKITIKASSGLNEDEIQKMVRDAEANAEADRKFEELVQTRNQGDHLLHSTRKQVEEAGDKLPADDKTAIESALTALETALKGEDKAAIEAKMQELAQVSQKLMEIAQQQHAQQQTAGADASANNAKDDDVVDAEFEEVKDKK

| SMILES | Kd |
| --- | --- |
| COc1cc(C(=O)O[C@H]2CC[C@@]3(C)[C@@H]4CC[C@H]5[C@]6(O)C[C@H](O)[C@@]7(O)[C@@H](CN8C[C@@H](C)CC[C@H]8[C@@]7(C)O)[C@]6(O)C[C@@]53OC24O)cc(OC)c1OC | > 4 mM (inactive) |
| Cn1ncc(SCc2ccco2)c(Cl)c1=O | > 4 mM (inactive) |
| CC1(O)CC2C(CC1O)C2(C)C (centres undefined) | > 4 mM (inactive) |
| COc1ccccc1-c1n[nH]c(=O)o1 | > 4 mM (inactive) |
| CS(=O)(=O)c1ccccc1C(=O)Nc1nccs1 | > 4 mM (inactive) |
| CCOc1ccc(-c2n[nH]c(=S)n2C)cc1 | > 4 mM (inactive) |
| COC(=O)c1cn(C(=O)OC)c2ccccc12 | > 4 mM (inactive) |
| OCc1ccc2ncccc2c1 | > 4 mM (inactive) |
| O=C(O)C1CSC(c2ccccc2)N1 (centres undefined) | > 4 mM (inactive) |
| Cc1cc(C(=O)NC(C)c2ccncc2)no1 (centres undefined) | > 4 mM (inactive) |
| O=C(Nc1ncc2ccccc2n1)c1cccs1 | < 0.2 mM |
| O=C(Cc1cccs1)Nc1ccon1 | > 4 mM (inactive) |
| COc1ccc2[nH]c(O)c(NC(C)=O)c2c1 | > 4 mM (inactive) |
| Cc1cc(=O)[nH]c2ccccc12 | > 4 mM (inactive) |
| Cn1ncc(N2CCOCC2)c(Cl)c1=O | > 4 mM (inactive) |
| O=C1CNC(=O)N1Cc1ccc(F)cc1 | > 4 mM (inactive) |
| COc1ccc(NC(=O)CCCC(=O)O)c(OC)c1 | > 4 mM (inactive) |
| COc1ccc(C(=O)NC2=NCCS2)cc1OC | > 4 mM (inactive) |
| CC(=O)NC1(NC(C)=O)CCN(C)CC1 | > 4 mM (inactive) |
| NC(=O)CCN1C(=O)c2ccccc2C1=O | > 4 mM (inactive) |
| COc1cccc(-c2nc3ccc(O)cc3c(=O)o2)c1 | > 4 mM (inactive) |

| SMILES | Kd |
| --- | --- |
| O=S(=O)(Cc1ccccc1Cl)Nc1ccccn1 | > 4 mM (inactive) |
| O=C(Nc1ccccc1)Nc1ccccn1 | > 4 mM (inactive) |
| Cn1c(=O)n(-c2cccc(Cl)c2)c(=O)n1C | > 4 mM (inactive) |
| Nc1ccc(Cl)nn1 | > 4 mM (inactive) |
| O=C1Nc2ccccc2C1C1(O)C(=O)Nc2ccc(F)cc21 (centres undefined) | > 4 mM (inactive) |
| COc1cccc(-c2cc(=O)c3cc(OC)ccc3o2)c1 | > 4 mM (inactive) |
| CC(=O)Nc1ccc(C(=O)NC2=NCCS2)cc1 | > 4 mM (inactive) |
| Cn1c(O)c(C2=NC(=S)NC2=O)c2ccccc21 | > 4 mM (inactive) |
| CC(=O)c1c(O)c(C)c(O)c2c1OC1=CC(=O)C(C(C)=O)C(=O)C12C (centres undefined) | > 4 mM (inactive) |
| CC(O)(C(=O)O)c1ccccc1 (centres undefined) | > 4 mM (inactive) |
| Fc1ccc(F)c(CN2CCN(c3ncccn3)CC2)c1 | > 4 mM (inactive) |
| O=C(O)CSCc1c(F)cccc1Cl | > 4 mM (inactive) |
| COc1cc(C(=O)NCC2CCCO2)cc(OC)c1OC (centres undefined) | > 4 mM (inactive) |
| Cn1c(=O)[nH]c(=O)c2c1ncn2CCN1CCCCC1 | > 4 mM (inactive) |
| CCn1cnc2scc(-c3ccccc3)c2c1=O | > 4 mM (inactive) |
| O=C1C(=O)N(CN2CCN(CCO)CC2)c2ccccc21 | > 4 mM (inactive) |
| NC(=O)C1CCN(Cc2ccccc2)CC1 | > 4 mM (inactive) |
| C=C[C@@](C)(O)CCC1C(=C)CCC2[C@@](C)(CO)CCC[C@]12C (some centres undefined) | > 4 mM (inactive) |
| CCOc1ccc(C(=O)c2ccncc2)cc1 | > 4 mM (inactive) |
| CC(=O)NCS(=O)(=O)c1ccc(C)cc1 | > 4 mM (inactive) |
| S=c1oc(-c2ccncc2)nn1CCc1ccncc1 | > 4 mM (inactive) |

| SMILES | Kd |
| --- | --- |
| Cc1nc2nc(Cc3ccccc3)nn2c(C)c1Cl | > 4 mM (inactive) |
| O=C(Nc1cccnc1)c1c(F)cccc1F | > 4 mM (inactive) |
| O=C(Nc1cccc2ncccc12)c1cccnc1 | > 4 mM (inactive) |
| Nc1ncnc(NCCCO)c1[N+](=O)[O-] | > 4 mM (inactive) |
| CSc1ccc2nnc(-c3cccnc3)n2n1 | > 4 mM (inactive) |
| Cc1cc(=O)cc(C)n1-c1ccccc1N1CCOCC1 | > 4 mM (inactive) |
| Cn1cnnc1SCCCNC(=O)Nc1ncccn1 | > 4 mM (inactive) |
| CCC(=O)Nc1ccc(-c2nn3c(C)nnc3s2)cc1 | > 4 mM (inactive) |
| CC(C)(C)c1ccc(SCC(N)=O)cc1 | > 4 mM (inactive) |
| NCCCCN=C(N)N | > 4 mM (inactive) |
| CC(=O)O[C@H]1CCC2(C)C3=C(CCC2C1(C)C)[C@]1(C)CCC(C(C)CCC=C(C)C)[C@@]1(C)CC3 (some centres undefined) | > 4 mM (inactive) |
| Nc1nc(CSc2ncn(-c3ccccc3)n2)cs1 | > 4 mM (inactive) |
| CC1(C)C2CC[C@]3(C)C(C(=O)C=C4[C@H]5C[C@@](C)(C(=O)O)CC[C@]5(C)CC[C@]43C)[C@@]2(C)CC[C@@H]1O (some centres undefined) | > 4 mM (inactive) |
| CC(=O)Nc1ccc(NC(=O)N2CCOCC2)cc1 | > 4 mM (inactive) |
| CC(=O)O[C@H]1C(=O)[C@@]2(C)C([C@H](OC(=O)c3ccccc3)[C@]3(O)C[C@H](OC(=O)[C@H](O)[C@@H](NC(=O)c4ccccc4)c4ccccc4)C(C)=C1C3(C)C)[C@]1(OC(C)=O)CO[C@@H]1C[C@@H]2O (some centres undefined) | > 4 mM (inactive) |
| CC(=O)NC(C)C12CC3CC(CC(C(=O)O)(C3)C1)C2 (centres undefined) | > 4 mM (inactive) |
| Cc1nnc(NCCCO)[nH]c1=O | > 4 mM (inactive) |
| CC(C)C(=O)NCC(c1ccco1)N1CCOCC1 (centres undefined) | > 4 mM (inactive) |
| COc1ccc(CC(=O)c2ccc(O)cc2O)cc1 | > 4 mM (inactive) |
| O=C(CC1SC(=O)NC1=O)Nc1nccs1 (centres undefined) | > 4 mM (inactive) |
| O=C(O)/C=C1\NC(=O)c2ccccc21 | > 4 mM (inactive) |

| SMILES | Kd |
| --- | --- |
| CN(C)/C=N/S(=O)(=O)c1ccccc1 | > 4 mM (inactive) |
| NCc1ccc2c(c1)OCO2 | > 4 mM (inactive) |
| Nc1nnc(COc2cccc(C(F)(F)F)c2)s1 | > 4 mM (inactive) |
| NCc1cc2ccccc2s1 | > 4 mM (inactive) |
| Cc1ccc(CNc2ccc(O)cc2)cc1 | > 4 mM (inactive) |
| CNS(=O)(=O)c1cccs1 | > 4 mM (inactive) |
| Cc1n[nH]c(=O)c2ncn(C)c12 | > 4 mM (inactive) |
| Cc1ccccc1NC(=O)CSc1ccnc(=O)[nH]1 | > 4 mM (inactive) |
| CC1(C)C2CC(=O)[C@]3(C)C(CC[C@@]4(C)[C@H](c5ccoc5)OC(=O)[C@H]5O[C@]543)[C@@]2(C)C=C[C@@H]1O (some centres undefined) | > 4 mM (inactive) |
| CC(=O)O[C@H]1CC[C@@]2(C)C(=CC(=O)C3C4CCC(C(C)CCCC(C)C)[C@@]4(C)CCC32)C1 (some centres undefined) | > 4 mM (inactive) |
| O=C(O)Cn1nc(-c2ccccc2)c2ccccc2c1=O | > 4 mM (inactive) |
| CCc1c(C(=O)N2CCOCC2)csc1C | > 4 mM (inactive) |
| Nc1ccc(OCc2ccccc2)cc1 | > 4 mM (inactive) |
| C[C@]12CCC3C(CC[C@]4(O)C[C@@H](O)CC[C@]34C=O)[C@@]1(O)CCC2C1=CC(=O)OC1 (some centres undefined) | > 4 mM (inactive) |
| CN1CCc2c(sc(N)c2C#N)C1 | > 4 mM (inactive) |
| Cc1nc(N)sc1C(=O)N/N=C/c1ccncc1 | > 4 mM (inactive) |
| O=C1C=C(O)c2ccccc2C1=O | > 4 mM (inactive) |
| O=C(Nc1ccon1)c1cccc(Cl)c1 | > 4 mM (inactive) |
| CC12CN(CC#N)CC(C)(CN(CC#N)C1)C2=O | > 4 mM (inactive) |
| Cc1cc(C(=O)Nc2sc3c(c2C#N)CCC3)no1 | > 4 mM (inactive) |
| CCCC(=O)N1CCSCC1 | > 4 mM (inactive) |
